Structures can show the parent of a compound that is named as a salt. Where two headings read alike, the source gives them in different places.

Here are results for 28 molecules from article PMC8286840, “Identifying SARS-CoV-2 antiviral compounds by screening for small molecule inhibitors of Nsp3 papain-like protease” (Biochemical Journal, 2021).

Assay [1] deals with T1, SARS-CoV-2 PLpro (nsp3 1564–1878) (Severe acute respiratory syndrome coronavirus 2, UniProt P0DTD1). Kind of assay: biochemical. Also noted: FRET-quenched peptide (Pro3) cleavage by PLpro, 10 min pre-incubation, slope over 20 min, normalised to no-compound control. The following applies: high concentration screen, read-out: % of control remaining.
Assay [2] concerns the target T1, SARS-CoV-2 PLpro (nsp3 1564–1878). The experiment in a line: biochemical. Set-up: FRET-quenched peptide (Pro3) cleavage by PLpro, 10 min pre-incubation, slope over 20 min, normalised to no-compound control. The following applies: low concentration screen, read-out: % of control remaining.

With `COc1ccc2cc1Oc1ccc(cc1)C[C@H]1c3cc(c(OC)cc3CCN1C)Oc1c(OC)c(OC)cc3c1[C@H](C2)N(C)CC3` [Tetrandrine], the remaining activity at 3.75 µM in assay [1] (Well no.=3182) was determined as 99.4%. For the same molecule, in assay [2] (Well no.=3182), the remaining activity at 1.25 µM was found to be 103%.

On to `CCCCC/C=C\C[C@@H](O)/C=C/C=C\CCC(=O)O` [Tetranor-12(R)-HETE], for which the remaining activity at 3.75 µM in assay [1] (Well no.=4563) amounted to 97.6%. The remaining activity at 1.25 µM in assay [2] (Well no.=4563) amounted to 97%.

With `O=C1CCC(N2C(=O)c3ccccc3C2=O)C(=O)N1` (stereo not drawn) [Thalidomide], the remaining activity at 3.75 µM in assay [1] (Well no.=2261) was determined as 102%. The remaining activity at 1.25 µM in assay [2] (Well no.=2261) stood at 98.2%.

Consider `C/C=C(/C)C(=O)O[C@H]1C(C)=C2[C@H]([C@@H]1OC(=O)CCCCCCC)[C@@](C)(OC(C)=O)C[C@H](OC(=O)CCC)[C@@]1(O)[C@H]2OC(=O)[C@@]1(C)O` [Thapsigargin], for which the remaining activity at 3.75 µM was found to be 95.1% in assay [1] (Well no.=1470) and 107% in assay [1] (Well no.=3184). Also, the figures for the remaining activity at 1.25 µM in assay [2] (Well no.=1470) and in assay [2] (Well no.=3184) were 98% and 107%, respectively.

With `Cn1cnc2c1c(=O)[nH]c(=O)n2C` [Theobromine], the remaining activity at 3.75 µM in assay [1] (Well no.=1479) came out at 97.3%; in assay [1] (Well no.=3491) it was 96.4%; in assay [1] (Well no.=6387), 102%; in assay [1] (Well no.=8067), 104%. The remaining activity at 1.25 µM is 96.7% in assay [2] (Well no.=1479), 95.7% in assay [2] (Well no.=3491), 101% in assay [2] (Well no.=6387) and 106% in assay [2] (Well no.=8067).

`c1ccc2[nH]c(-c3cscn3)nc2c1` [Thiabendazole]: the remaining activity at 3.75 µM in assay [1] (Well no.=4622) worked out at 98.1%. The remaining activity at 1.25 µM in assay [2] (Well no.=4622) was 100%.

With `Cc1ncc(C[n+]2csc(CCO)c2C)c(N)n1` [Thiamine HCl (Vitamin B1)], in assay [1] (Well no.=4638), the remaining activity at 3.75 µM came to 96.6%. The remaining activity at 1.25 µM in assay [2] (Well no.=4638) was determined as 94.5%.

`CS(=O)(=O)c1ccc([C@H](O)[C@@H](COC(=O)CN)NC(=O)C(Cl)Cl)cc1` [Thiamphenicol glycinate]: the remaining activity at 3.75 µM in assay [1] (Well no.=2025) was determined as 108%. Besides, the remaining activity at 1.25 µM in assay [2] (Well no.=2025) amounted to 109%.

Regarding `O=C(NCc1ccccc1)c1csc(Nc2ccncn2)n1` [Thiazovivin], the remaining activity at 3.75 µM in assay [1] (Well no.=4867) was 102%. Further, the remaining activity at 1.25 µM in assay [2] (Well no.=4867) is 100%.

Consider `NC(=S)c1ccc[n+]([C@@H]2O[C@H](COP(=O)([O-])OP(=O)(O)OC[C@H]3O[C@@H](n4cnc5c(N)ncnc54)[C@H](OP(=O)(O)O)[C@@H]3O)[C@@H](O)[C@H]2O)c1` [Thio-NADP sodium], for which, in assay [1] (Well no.=1481), the remaining activity at 3.75 µM stood at 93.5%. For the same molecule, the remaining activity at 1.25 µM in assay [2] (Well no.=1481) was found to be 98%.

Turning to `Nc1nc2[nH]cnc2c(=S)[nH]1` [Thioguanine], in assay [1] (Well no.=4624), the remaining activity at 3.75 µM amounted to 102%. For the same molecule, in assay [2] (Well no.=4624), the remaining activity at 1.25 µM was 102%.

As to `S=C(NC1CCCCC1)N1CCC(c2cnc[nH]2)CC1` [Thioperamide maleate], the remaining activity at 3.75 µM in assay [1] (Well no.=1234) stood at 104%. Besides, the remaining activity at 1.25 µM in assay [2] (Well no.=1234) turned out to be 102%.

`CSc1ccc2c(c1)N(CCC1CCCCN1C)c1ccccc1S2` (stereo not drawn) [Thioridazine (hydrochloride)]: in assay [1] (Well no.=7376), the remaining activity at 3.75 µM came to 98.1%. The remaining activity at 1.25 µM in assay [2] (Well no.=7376) was 97.9%.

For `CSc1ccc2c(c1)N(CCC1CCCCN1C)c1ccccc1S2` (stereo not drawn) [Thioridazine hydrochloride], the remaining activity at 3.75 µM in assay [1] (Well no.=1422) was 95.6%. The remaining activity at 1.25 µM in assay [2] (Well no.=1422) was 96.4%.

Take `CSc1ccc2c(c1)N(CCC1CCCCN1C)c1ccccc1S2` (stereo not drawn) [Thioridazine]: the remaining activity at 3.75 µM in assay [1] (Well no.=2140) was determined as 96.6%. For the same molecule, the remaining activity at 1.25 µM in assay [2] (Well no.=2140) stood at 97.3%.

Take `CN1CCN(CC/C=C2/c3ccccc3Sc3ccc(S(=O)(=O)N(C)C)cc32)CC1` [Thiothixene hydrochloride]: the remaining activity at 3.75 µM in assay [1] (Well no.=1281) was determined as 112%. For the same molecule, the remaining activity at 1.25 µM in assay [2] (Well no.=1281) stood at 106%.

On to `NC(N)=S` [Thiourea], for which the remaining activity at 3.75 µM in assay [1] (Well no.=4097) amounted to 101%. The remaining activity at 1.25 µM in assay [2] (Well no.=4097) was 98.1%.

For `CCCCC[C@H](O)/C=C/[C@H]1OC(O)C[C@H](O)[C@@H]1C/C=C\CCCC(=O)O` (stereo partly drawn) [Thromboxane B2], the remaining activity at 3.75 µM in assay [1] (Well no.=4286) is 98.5%. For the same molecule, in assay [2] (Well no.=4286), the remaining activity at 1.25 µM is 99.3%.

Turning to `Cc1cn([C@H]2C[C@H](O)[C@@H](CO)O2)c(=O)[nH]c1=O` [Thymidine], the remaining activity at 3.75 µM in assay [1] (Well no.=7349) is 106%; in assay [1] (Well no.=7770), 97.4%. In addition, the remaining activity at 1.25 µM in assay [2] (Well no.=7349) is 104%; in assay [2] (Well no.=7770), 94.3%.

Regarding `Cc1c[nH]c(=O)[nH]c1=O` [Thymine], the remaining activity at 3.75 µM in assay [1] (Well no.=6629) was found to be 108%. Moreover, in assay [2] (Well no.=6629), the remaining activity at 1.25 µM was determined as 103%.

With `CC1=CC(=O)C(C(C)C)=CC1=O` [Thymoquinone], the remaining activity at 3.75 µM in assay [1] (Well no.=3567) turned out to be 102%; in assay [1] (Well no.=4095), 101%. For the same molecule, the values for the remaining activity at 1.25 µM in assay [2] (Well no.=3567) and in assay [2] (Well no.=4095) were 101% and 102%, respectively.

In the case of `CCN(CC)CCNC(=O)c1cc(S(C)(=O)=O)ccc1OC` [Tiapride hydrochloride], in assay [1] (Well no.=1185), the remaining activity at 3.75 µM was 100%. In addition, the remaining activity at 1.25 µM in assay [2] (Well no.=1185) was 101%.

For `C#C[C@]1(O)CC[C@H]2[C@@H]3[C@H](C)CC4=C(CCC(=O)C4)[C@H]3CC[C@@]21C` [Tibolone], the remaining activity at 3.75 µM in assay [1] (Well no.=1954) was determined as 98.3%. In assay [2] (Well no.=1954), the remaining activity at 1.25 µM was 97.8%.

On to `CCCSc1nc(N[C@@H]2C[C@H]2c2ccc(F)c(F)c2)c2nnn([C@@H]3C[C@H](OCCO)[C@@H](O)[C@H]3O)c2n1` [Ticagrelor], for which the remaining activity at 3.75 µM in assay [1] (Well no.=4738) came out at 108%; in assay [1] (Well no.=6329), 102%. In addition, the remaining activity at 1.25 µM in assay [2] (Well no.=4738) worked out at 105%; in assay [2] (Well no.=6329) it was 101%.

`CC1(C)S[C@@H]2[C@H](NC(=O)[C@H](C(=O)O)c3ccsc3)C(=O)N2[C@H]1C(=O)O` [Ticarcillin (disodium)]: the remaining activity at 3.75 µM in assay [1] (Well no.=7782) stood at 109%. For the same molecule, in assay [2] (Well no.=7782), the remaining activity at 1.25 µM turned out to be 105%.

As to `Clc1ccccc1CN1CCc2sccc2C1` [Ticlopidine (hydrochloride)], the remaining activity at 3.75 µM in assay [1] (Well no.=6270) is 109%; in assay [1] (Well no.=8213), 100%. Moreover, the results for the remaining activity at 1.25 µM in assay [2] (Well no.=6270) and in assay [2] (Well no.=8213) were 107% and 108%, respectively.

Consider `Clc1ccccc1CN1CCc2sccc2C1` [Ticlopidine], for which the remaining activity at 3.75 µM in assay [1] (Well no.=1746) came to 92.5%. For the same molecule, in assay [2] (Well no.=1746), the remaining activity at 1.25 µM turned out to be 92.5%.

On to `COc1ccc2cc(-c3nc(-c4ccc([S+](C)[O-])cc4)[nH]c3-c3ccncc3)ccc2c1` (stereo not drawn) [Tie2 kinase inhibitor], for which the remaining activity at 3.75 µM in assay [1] (Well no.=4965) came to 90.7%. In addition, the remaining activity at 1.25 µM in assay [2] (Well no.=4965) came out at 91%.
